Laboratory results taken from patent US8703815B2, “Small molecules that covalently modify transthyretin” (The Scripps Research Institute, priority 2009, dated 2014).

Legend:
human fibroblasts = assay: A2 treatment of human fibroblasts (no TTR); format: cell-based; details: A2 10 μM, 30 minutes
Source text: The confocal fluorescence observations are consistent with substantial evidence that the liver secretes the vast majority, if not all, of the TTR into the human bloodstream [Felding et al., Biochimica et Biophysica Acta 1982, 716, 446-9]. That TTR could be visualized in the secretory pathway addresses the sensitivity of A2-derived TTR fluorescent conjugate-based detection [Sekijima et al., Cell 2005, 121, 73-85].
Huh-7 cells or Gaucher's patient-derived fibroblasts (Coriell Cell Repositories, GM08760) were maintained in DMEM containing 10% FBS at 37° C. under 5% CO2. The cells were plated the day before compound treatment and imaging. Cells were washed twice with PBS and then treated with A2 (final concentration: 10 μM) for 30 minutes at 37° C. in a CO2 incubator. After two washes, cells were fixed at 25° C. for 15 minutes with 3.7% paraformaldehyde (w/v) in PBS and microscopic images were acquired as described above.

WT-TTR = target: T1, WT-TTR (Homo sapiens, UniProt P02766); assay: Selectivity of A2 TTR conjugation in HeLa cell lysate (RP-HPLC, LC-MS); format: binding; details: WT-TTR 5 μM, A2 15 μM, maximum of 50%
T1 construct: composed of 127-residue β-sheet-rich subunits; made in house; host or cells: E. coli
Method: The ability of A2 to form a chemoselective amide bond with the K15 residue of TTR in cell lysate was assessed by RP-HPLC and LC-MS analysis. […] Immunoisolation of TTR affords the expected mass resulting from conjugate formation (14,185 m/z [M+H] for benzoylation by A2).

% of TTR subunits modified in HeLa cell lysate (WT-TTR): 49%
Structure (SMILES): Cc1cc(/C=C/c2cc(C(=O)Sc3ccc(F)cc3)cc(N(C)C)c2)cc(C)c1O [Compound A2, (E)-S-4-fluorophenyl 3-(dimethylamino)-5-(4-hydroxy-3,5-dimethylstyryl)-benzothioate]
fluorescence in human fibroblasts (human fibroblasts): no significant fluorescence
